Where two headings read alike, the source gives them in different places.
Tests used:
[1] = biological target: T1, hSP-A (human SP-A, isolated from BAL of PAP patient) (Homo sapiens, UniProt Q8IWL1+Q8IWL2); test: Microscale thermophoresis (MST) binding to hSP-A; design: Response Amplitude: unit not given here; conditions: for binding of hSP-A in the absence or presence of low calcium concentrations: 0 and 2.5 mM calcium (Fig. 3A-C); for Response Amplitude / Kd: hSP-A
T1 construct: Human PAP patient, BAL isolated; from tissue; host or cells: bronchoalveolar lavage fluid of a patient with pulmonary alveolar proteinosis
T1 sequence (Q8IWL2 21-248): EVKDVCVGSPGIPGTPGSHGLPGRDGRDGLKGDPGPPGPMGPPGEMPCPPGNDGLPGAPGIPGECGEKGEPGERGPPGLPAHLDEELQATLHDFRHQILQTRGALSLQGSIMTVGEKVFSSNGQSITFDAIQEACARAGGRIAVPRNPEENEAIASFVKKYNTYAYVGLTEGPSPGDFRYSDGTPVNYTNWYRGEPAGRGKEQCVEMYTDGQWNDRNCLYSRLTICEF
T1 sequence (Q8IWL1 21-248): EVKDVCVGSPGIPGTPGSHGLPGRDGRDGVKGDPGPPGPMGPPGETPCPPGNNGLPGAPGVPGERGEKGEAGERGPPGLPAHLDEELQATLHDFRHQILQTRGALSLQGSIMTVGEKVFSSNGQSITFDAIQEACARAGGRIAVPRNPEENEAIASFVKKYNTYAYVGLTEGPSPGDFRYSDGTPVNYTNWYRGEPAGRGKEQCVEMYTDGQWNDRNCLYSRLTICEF
Procedure: (§1) Human-isolated and recombinant proteins were labeled using the Monolith Protein Labeling Kit RED-NHS according to the manufacturer’s instructions. This kit reagent reacts with lysine residues present in the sequence of the protein, as the dye carries a reactive NHS-ester group. Briefly, as all the proteins were in a Tris buffer solution, the buffer solution was exchanged to a HEPES-based buffer with the A-Column provided in the kit. Then, 10 µM solution of protein was incubated with a threefold excess of dye in 100 µL for 30 min at room temperature protected from light. The labeled protein was separated from the free dye using the B-Column provided in the kit. The concentration of the labeled protein {c(M) = [A205 − (A650 × 0.19)]/[31 × MWprotein]) and the degree of labeling [DOL = A650/(195.000 M^−1cm^−1 × c(M)] were calculated according to the manufacturer’s instruction, measuring absorption at 205 nm (for the protein) and 650 nm (for the dye).
(§2) Thermophoresis is the phenomenon of movement of particles along a temperature gradient. Solvated molecules move from higher to lower temperature. This movement or depletion of molecules from the heat is quantified by the Soret coefficient ST: Chot/Ccold = exp (−STΔT). The depletion of molecules depends on the interface between molecule and solvent. Therefore, thermophoresis monitors changes in size, charge, and solvation entropy of molecules. In this regard, the thermophoresis or movement of a protein is different from a protein-ligand complex ([35]). Microscale or miniaturized thermophoresis allows to monitor molecular interaction in only a few microliters. For this method, the fluorescently labeled protein is mixed with a decreasing concentration of a ligand in 16 glass capillaries. The initial fluorescence is measured (Fcold), then an infrared (IR) laser beam is switched on and focused on the center of the first capillary, where the temperature gradient is created from the center to the walls of the capillary. At the same time, a dichroic mirror allows fluorescence from the labeled protein to be monitored (Fhot). The rate of fluorescence change is related to the amount of protein-ligand complex form, which depends on the ligand concentration, due to changes in size, charge, or hydration shell of the protein-ligand complex. The dissociation constant KD is calculated from the binding curve derived by plotting the normalized fluorescence (FNorm) at a given time after the start of the thermophoresis against the respective ligand concentration ([33], [34], [36]).
(§3) Samples were measured in a Monolith NT.115, using Premium Capillaries (MO-K025) and Monolith Protein labeling kit RED-NHS (MO-L011) all from NanoTemper Technologies (Munich, Germany). Solutions of a 3X concentrated MST buffer (15 mM Tris, 300 mM NaCl, 0.3% Tween 20, 15 mM CaCl2, pH 7.4), sugars (270 mM) or GAG (30 µM) solution, and protein solution (27 nM) were prepared separately. When a different concentration was used, a threefold concentration of the solution was prepared. Afterward, sugars and GAG solutions were diluted 1:2 with water in a series of 16 steps. For the measurement, 3 µL of each prepared component (3 µL MST buffer, 3 µL GAG solution, and 3 µL labeled protein) was mixed, centrifuged shortly to eliminate precipitates, and loaded into a glass capillary. The final concentrations of the sugars were thus between 90 –and 0.00275 mM or GAGs 10 and 0.000305 µM for GAGs, respectively. The 16 capillaries were loaded in the Monolith NT.115 and measurements were performed with a 40% LED power and medium MST power at 25°C.
(§4) Every set of 16 capillaries was prepared in 3–6 replicates (technical replicates) and measured. The replicate measures of every capillary were plotted against concentration and outliers were excluded, using the MO Affinity Analysis 3 v01 software (NanoTemper Technologies, Munich, Germany). […]

[2] = biological target: T2, recSP-A1 (human recombinant SP-A1) (Homo sapiens, UniProt Q8IWL2); test: Microscale thermophoresis (MST) binding to recSP-A1; conditions: for Kd: recSP-A1, GAGs from Fig. 2, read-out: Kd (±KD Confidence); for Response Amplitude: recSP-A1, MST, GAGs from Fig. 2
T2 construct: purchased Aviva Systems Biology OPCD07130; host or cells: prokaryotic expression
T2 sequence (Q8IWL2 21-248): as the sequence (Q8IWL2 21-248) above
Procedure: as §1, §2, §3, §4

[3] = biological target: T3, hSP-D (human SP-D, isolated from BAL of PAP patient) (Homo sapiens, UniProt P35247); test: Microscale thermophoresis (MST) binding to hSP-D; conditions: for Kd: GAGs from Fig. 2, read-out: Kd (±KD Confidence); for Response Amplitude: MST, GAGs from Fig. 2
T3 construct: hSP-D; 0.6 µM; Human PAP patient, BAL isolated; from tissue; host or cells: bronchoalveolar lavage fluid of a patient with pulmonary alveolar proteinosis
T3 sequence (P35247 21-375): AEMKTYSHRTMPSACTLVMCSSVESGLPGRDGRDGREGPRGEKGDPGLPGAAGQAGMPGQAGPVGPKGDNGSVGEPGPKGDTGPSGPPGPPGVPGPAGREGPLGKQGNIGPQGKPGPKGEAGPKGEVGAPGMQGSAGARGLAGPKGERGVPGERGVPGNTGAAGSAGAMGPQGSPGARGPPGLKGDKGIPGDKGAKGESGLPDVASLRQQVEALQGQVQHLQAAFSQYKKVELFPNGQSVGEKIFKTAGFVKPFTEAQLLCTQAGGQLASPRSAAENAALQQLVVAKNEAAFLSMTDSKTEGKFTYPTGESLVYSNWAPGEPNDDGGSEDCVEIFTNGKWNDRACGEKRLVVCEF
Procedure: as §1, §2, §3, §4

[4] = biological target: T4, rhSP-D (human recombinant SP-D) (Homo sapiens, UniProt P35247); test: Microscale thermophoresis (MST) binding to rhSP-D; design: Response Amplitude: unit not given here
T4 construct: host or cells: CHO cells
T4 sequence (P35247 21-375): T3 sequence (P35247 21-375)
Procedure: as §1, §2, §3, §4

[5] = GAGs from Fig. 2, read-out: Kd (±KD Confidence)

Row | Substance | binding of hSP-A in the absence or presence of low calcium concentrations ([1]; MST) | Response Amplitude ([1]; 0 mM Ca^2+) | Kd ([1]; 0 mM Ca^2+, read-out: KD) [nM] | Response Amplitude ([1]; 2.5 mM Ca^2+) | Response Amplitude ([1]; 5 mM Ca^2+) | Kd ([1]; 5 mM Ca^2+, read-out: KD) [nM] | Response Amplitude ([1]; 10 mM Ca^2+) | Kd ([1]; 10 mM Ca^2+, read-out: KD) [nM] | Kd [1, 5] [nM] | Response Amplitude ([1]; MST, GAGs from Fig. 2) | Kd [2] [nM] | Response Amplitude [2] | Kd [3] [nM] | Response Amplitude [3] | Response Amplitude ([4]; 5 mM Ca^2+) | Kd ([4]; 5 mM Ca^2+, read-out: KD) [nM] | Response Amplitude ([4]; 10 mM Ca^2+) | Kd ([4]; 10 mM Ca^2+, read-out: KD) [nM] | Kd [4, 5] [nM] | Response Amplitude ([4]; MST, GAGs from Fig. 2) | further results
1 | chondroitin sulfate sodium salt [CS] | binds | 7.16 | 0.999 | 13.45 | 8.07 | 7.38 | 6.89 | 5.91 | 225 | 8.37 | 80.1 | 17.02 | 5820 | 3.74 | 10.83 | 97.1 | 21.36 | 131 | 0.808 | 23.54 | Response Amplitude ([4]; 0 mM Ca^2+): 16.10; Kd ([4]; 0 mM Ca^2+, read-out: KD): 17600 nM; Response Amplitude ([4]; 2.5 mM Ca^2+): 10.05; Kd ([4]; 2.5 mM Ca^2+, read-out: KD): 152 nM
2 | heparan sulfate sodium [HS] | binds | 3.61 | 3.22 | 9.27 | 7.51 | 3.74 | 2.79 | 375 | 23.3 | 11.92 | 269 | 15.51 | 5640 | 3.03 | 6.29 | 431 | 15.22 | 0.688 | 287 | 3.55 | Kd ([1]; 2.5 mM Ca^2+, read-out: KD): 0.188 nM; Response Amplitude ([4]; 0 mM Ca^2+): 12.04; Kd ([4]; 0 mM Ca^2+, read-out: KD): 735 nM; Response Amplitude ([4]; 2.5 mM Ca^2+): 33.47; Kd ([4]; 2.5 mM Ca^2+, read-out: KD): 7.44 nM
3 | hyaluronic acid sodium salt [HA] | not able to bind | – | – | – | 7.31 | 2.91 | 3.65 | 54.6 | 12.2 | 12.93 | 1010 | 17.13 | 2190 | 3.45 | 5.33 | 41.9 | 3.25 | 31.1 | 22.1 | 9.67 | –

From article PMC11380953, “Multivalent, calcium-independent binding of surfactant protein A and D to sulfated glycosaminoglycans of the alveolar epithelial glycocalyx” (American Journal of Physiology - Lung Cellular and …, 2024)
